# According to patent US12174189B2, “Diagnostic, prognostic, and monitoring methods for chronic lymphocytic leukemia” (INSTITUTE FOR MYELOMA & BONE CANCER RESEARCH, priority 2013, dated 2024):
# Entries after “also recorded” stand apart in the source; their conditions may differ.
# System: LAGλ-1 tumor
# Experiment: LAGλ-1 human MM xenograft in SCID mice
# Type: in vivo, CB17 SCID mice
# Conditions: melphalan 3 mg/kg twice weekly i.p., vs untreated mice
# Description: Serum human BCMA levels also correlated with tumor growth, IgG levels and response to treatment in mice bearing another human MM xenograft, LAGλ-1. Untreated mice (n=4) had large tumor volumes and high serum IgG and BCMA levels. […] Human BCMA was not detected in the serum of non-tumor bearing SCID mice (data not shown).
structure (smiles),measurement,setting,value
"N[C@@H](Cc1ccc(N(CCCl)CCCl)cc1)C(=O)O [melphalan, Melphalan]",tumor volumes,P<0.0001,smaller; also recorded: small tumor volumes
same,serum IgG levels,P=0.0033,smaller; also recorded: significantly reduced
same,serum human BCMA levels,P=0.0055,smaller; also recorded: significantly reduced
